Reference: patent US4870175A, “6-substituted alkoxy-2-oxo-1,2-dihydroquinoxaline derivatives” (Toyo Jozo Kabushiki Kaisha, priority 1987, dated 1989)
Read-outs that look alike come from different tables or passages of the source.

Tests used:
[1] = tested on: cyclic AMP/phosphodiesterase; experiment: Inhibitory action of cyclic AMP/phosphodiesterase (crude enzyme fraction from sonicated rabbit platelets); format: biochemical; conditions: 40 min
Description: The pharmacological activity of the present compounds [1] is illustrated below. (1) Inhibitory action of cyclic AMP/phosphodiesterase:
A mixture of 2 mM MgCl2 /40 mM Tris-buffer (pH 7.5) 700 μl, enzyme solution (a crude enzyme fraction obtained from sonicated rabbit platelets) 100 μl, and a test sample solution (compound [1] dissolved in 50% aqueous methanol) 100 μl is incubated at 30° C. for 5 mins. 3', 5'-cyclic AMP 100 μl (50 μg) is added thereto and the mixture is further incubated for 40 mins. The reaction is stopped by heating 100° C. for 5 mins. The amount of 5'-AMP in the supernatant obtained by centrifugation at 3000 rpm for 5 mins. is measured using HPLC.
As shown in that table, the compound of the present invention has cyclic AMP/phosphodiesterase inhibitory activity at 1-10 μg/ml.

[2] = tested on: rabbit platelet-rich plasma; experiment: Platelet aggregation inhibition (rabbit platelet-rich plasma, aggregometer); format: cell-based; conditions: Oryctolagus cuniculus, compound final concentration 10 μM, read-out: Inhibitory ratio
Description: (2) Platelet aggregation inhibition:
A rabbit platelet-rich plasma (5×10^5 /mm^3), to which was added 1/10 volume of a 3.8% sodium citrate solution, 216 μl, is incubated in an aggregometer at 37° C., 1000 rpm, for 3 mins. A test sample solution 12 μl (final concentration 10 μM) is added thereto and the mixture is further incubated for 3 mins., and collagen (aggregation agent) 2.5 μg/ml, ADP 2.5 μM, platelet activating factor (PAF) 0.05 μg/ml or 0.25 mM arachidonic acid (A.A.) 12 μl is added thereto as an aggregating agent, and the platelet aggregation activity is measured.

[3] = aggregating agent PAF 0.05 μg/ml
[4] = aggregating agent arachidonic acid (A.A.) 0.25 mM
[5] = aggregating agent collagen 2.5 μg/ml

| SMILES | Inhibitory ratio ([1]; 1 μg/ml) | Inhibitory ratio ([1]; 10 μg/ml) | Inhibitory ratio ([1]; 100 μg/ml) | inhibition at 10 µM ([2]; aggregating agent ADP 2.5 μM) | inhibition at 10 µM [2, 3] | inhibition at 10 µM [2, 4] | inhibition at 10 µM [2, 5] |
| --- | --- | --- | --- | --- | --- | --- | --- |
| CN(C(=O)CCCOc1ccc2[nH]c(=O)cnc2c1)C1CCCCC1 [Compound 896] | 25.5% | 71.5% | 91.0% | 37.2% | 37.1% | 31.1% | 59.2% |
| O=c1cnc2cc(OCCCCc3nnnn3C3CCCCC3)ccc2[nH]1 [Compound 913, 6-[4-(1-cyclohexyl-tetrazole-5-yl)-butoxy]-2-oxo-1,2-dihydroquinoxaline] | 19.2% | 80.3% | – | – | – | – | – |
| CCOC(=O)CCCOc1ccc2[nH]c(=O)cnc2c1 [Compound 914, 6-(3-ethoxycarbonylpropoxy)-2-oxo-1,2-dihydroquinoxaline] | 18.1% | 34.3% | 54.4% | – | – | – | – |
| CCN(C(=O)CCCOc1ccc2[nH]c(=O)cnc2c1)C1CCCCC1 [Compound 915] | 37.2% | 77.7% | 85.1% | 41% | 36% | 30.4% | 63.2% |
| O=C(CCCOc1ccc2[nH]c(=O)cnc2c1)N(Cc1ccccc1)C1CCCCC1 [Compound 916] | 47.3% | 78.0% | 85.7% | – | – | – | – |
| O=C(CCCOc1ccc2[nH]c(=O)cnc2c1)N(CCO)C1CCCCC1 [Compound 917] | 16.6% | 59.3% | 87.7% | 36.9% | 36.7% | 32.6% | 57.4% |
| COc1ccccc1N1CCN(C(=O)CCCOc2ccc3[nH]c(=O)cnc3c2)CC1 [Compound 918] | 19.8% | 61.0% | 87.9% | – | – | – | – |
| CCOC(=O)CCCCOc1ccc2[nH]c(=O)cnc2c1 [Compound 919] | 23.9% | 65.2% | 92.4% | – | – | – | – |
| CN(C(=O)CCCCOc1ccc2[nH]c(=O)cnc2c1)C1CCCCC1 [Compound 920] | 42.9% | 81.7% | 75.1% | 49.3% | 26.9% | 30.2% | 52.5% |
| CCN(C(=O)CCCCOc1ccc2[nH]c(=O)cnc2c1)C1CCCCC1 [Compound 921] | 49.8% | 84.5% | 93.0% | 62.6% | 35.3% | 44.7% | 81% |
| O=C(CCCCOc1ccc2[nH]c(=O)cnc2c1)N(Cc1ccccc1)C1CCCCC1 [Compound 922] | 61.7% | 88.1% | 91.1% | – | – | – | – |
| O=C(CCCCOc1ccc2[nH]c(=O)cnc2c1)N(CCO)C1CCCCC1 [Compound 923] | 43.7% | 81.8% | 92.4% | 68% | 29% | 56.7% | 75.7% |
| COc1ccccc1N1CCN(C(=O)CCCCOc2ccc3[nH]c(=O)cnc3c2)CC1 [Compound 924] | 24.6% | 63.5% | 70.2% | – | – | – | – |
| CCOC(=O)CCCOc1ccc2c(c1)NCC(=O)N2 [Compound 925, 6-(3-ethoxycarbonylpropoxy)-2-oxo-1,2,3,4-tetrahydroquinoxaline] | 5.3% | 26.4% | 71.3% | 56.5% | 29.5% | 46.5% | 53.8% |
| CCOC(=O)CCCCOc1ccc2c(c1)NCC(=O)N2 [Compound 927] | 10.5% | 47.7% | 76.1% | – | – | – | – |
| CN(C(=O)CCCOc1ccc2c(c1)NCC(=O)N2)C1CCCCC1 [Compound 929, 6-[3-(N-cyclohexyl-N-methyl-aminocarbonyl)propoxy]-2-oxo-1,2,3,4-tetrahydroquinoxaline] | 11.2% | 53.9% | 88.5% | 49.4% | 30.4% | 41.8% | 50.8% |
| O=C(O)CCCOc1ccc2[nH]c(=O)cnc2c1 [Compound 938, 6-(3-carboxypropoxy)-2-oxo-1,2-dihydroquinoxaline] | 17.9% | 63.1% | 88.2% | – | – | – | – |
| CCCCc1nc2cc(OCCCC(=O)OCC)ccc2[nH]c1=O [Compound 948] | 62.9% | 87.9% | 92.7% | – | – | – | – |
| CCCCCCc1nc2cc(OCCCC(=O)OCC)ccc2[nH]c1=O [Compound 949] | 40.9% | 53.7% | – | – | – | – | – |
| CCOC(=O)CCCOc1ccc2[nH]c(=O)c(-c3ccccc3)nc2c1 [Compound 954] | 42.4% | 54.2% | – | – | – | – | – |
| Cc1nc2cc(OCCCC(=O)O)ccc2[nH]c1=O [Compound 955, 3-methyl-6-(3-carboxypropoxy)-2-oxo-1,2-dihydroquinoxaline] | 44.2% | 82.3% | 93.0% | – | – | – | – |

| SMILES | Inhibitory ratio ([1]; 1 μg/ml) | Inhibitory ratio ([1]; 10 μg/ml) | Inhibitory ratio ([1]; 100 μg/ml) | inhibition at 10 µM ([2]; aggregating agent ADP 2.5 μM) | inhibition at 10 µM [2, 3] | inhibition at 10 µM [2, 4] | inhibition at 10 µM [2, 5] |
| --- | --- | --- | --- | --- | --- | --- | --- |
| CCc1nc2cc(OCCCC(=O)O)ccc2[nH]c1=O [Compound 956] | 83.9% | 92.9% | 95.0% | – | – | – | – |
| CCCc1nc2cc(OCCCC(=O)O)ccc2[nH]c1=O [Compound 957] | 71.4% | 90.7% | 94.0% | – | – | – | – |
| CCCCc1nc2cc(OCCCC(=O)O)ccc2[nH]c1=O [Compound 958] | 69.9% | 91.4% | 93.7% | – | – | – | – |
| CCCCCCc1nc2cc(OCCCC(=O)O)ccc2[nH]c1=O [Compound 959] | 43.4% | 80.5% | 91.0% | – | – | – | – |
| CCCCCCCCCc1nc2cc(OCCCC(=O)O)ccc2[nH]c1=O [Compound 960] | 34.8% | 61.7% | 87.4% | – | – | – | – |
| O=C(O)CCCOc1ccc2[nH]c(=O)c(-c3ccccc3)nc2c1 [Compound 964] | 43.8% | 78.8% | 90.5% | – | – | – | – |
| Cc1nc2cc(OCCCC(=O)N(C)C3CCCCC3)ccc2[nH]c1=O [Compound 965] | 68.9% | 87.3% | – | – | – | – | – |
| CCN(CC)C(=O)CCCOc1ccc2[nH]c(=O)c(C)nc2c1 [Compound 967] | 38.0% | 81.0% | 92.8% | – | – | – | – |
| COc1ccccc1N1CCN(C(=O)CCCOc2ccc3[nH]c(=O)c(C)nc3c2)CC1 [Compound 968] | 17.1% | 60.3% | – | – | – | – | – |
| Cc1nc2cc(OCCCC(=O)N(Cc3ccccc3)C3CCCCC3)ccc2[nH]c1=O [Compound 969] | 72.7% | 82.5% | – | – | – | – | – |
| Cc1nc2cc(OCCCC(=O)N3CCC(c4ccccc4)CC3)ccc2[nH]c1=O [Compound 970] | 24.1% | 51.5% | – | – | – | – | – |
| CCc1nc2cc(OCCCC(=O)N(C)C3CCCCC3)ccc2[nH]c1=O [Compound 971] | 84.4% | 93.0% | – | – | – | – | – |
| CCc1nc2cc(OCCCC(=O)N3CCN(c4ccccc4OC)CC3)ccc2[nH]c1=O [Compound 973] | 37.6% | 42.2% | – | – | – | – | – |
| CCCc1nc2cc(OCCCC(=O)N(C)C3CCCCC3)ccc2[nH]c1=O [Compound 974] | 73.2% | 91.7% | – | – | – | – | – |
| CCCc1nc2cc(OCCCC(=O)N(CCO)C3CCCCC3)ccc2[nH]c1=O [Compound 975] | 59.5% | 88.9% | 93.5% | – | – | – | – |
| CCCCc1nc2cc(OCCCC(=O)N(C)C3CCCCC3)ccc2[nH]c1=O [Compound 976] | 51.1% | 84.5% | – | – | – | – | – |
| CCCCCCc1nc2cc(OCCCC(=O)N(CCO)C3CCCCC3)ccc2[nH]c1=O [Compound 978] | 26.2% | 40.1% | – | – | – | – | – |
| CN(C(=O)CCCOc1ccc2[nH]c(=O)c(-c3ccccc3)nc2c1)C1CCCCC1 [Compound 986] | 66.2% | 80.5% | – | – | – | – | – |
| O=C(CCCOc1ccc2[nH]c(=O)c(-c3ccccc3)nc2c1)N(CCO)C1CCCCC1 [Compound 987] | 57.4% | 83.3% | 90.2% | – | – | – | – |
| CCN(CC)C(=O)CCCOc1ccc2[nH]c(=O)c(-c3ccccc3)nc2c1 [Compound 988] | 46.4% | 76.9% | – | – | – | – | – |
